Measurements published in patent publication US11345666B2, “Phenyl and pyridinyl substituted imidazoles as modulators of RORγT” (Janssen Pharmaceutica NV, priority 2018, dated 2022).

Tests used:
[1] = molecular target: full-length human RORγt (Homo sapiens (Human), UniProt P51449); experiment: RORγt (full-length human) reporter assay, conditions A or B; format: cell-based; settings: for inhibition at 3 µM: 3 μM compound concentration (*); for IC50: HEK293T cells, read-out: RORγt (FL) Reporter Assay A or B, IC50; for inhibition at 6 µM: read-out: RORγt (FL) Reporter Assay A or B, % inhibition @ 6 μM, 6 μM compound concentration
Excerpt: RORγt (Full-Length Human) Reporter Assay:
Cells used in this assay were transiently co-transfected with three different plasmids, one expressing the GAL4-DNA binding domain (DBD)-RORγt fusion protein under control of a CMV promoter (NH2-Gal4-DBD:RORC—COOH in pCMV-BD, Stratagene #211342), and two reporter plasmids—the firefly luciferase reporter under control of a GAL4 promoter (pFR-Luc 2×GAL4) and Renilla luciferase reporter under control of CMV promoter (pRL-CMV, Promega #E2261). […] HEK293T cells were plated at 35,000 per well in 96-well plate in medium of DMEM with 10% FBS. After 18-22 hours incubation, the transfection was carried out by using a PEI solution with 170.5 ng total DNA/well (50 ng pCMV-BD-ROR plus 20 ng of pFR-Luc reporter and 0.5 ng of pRL-CMV reporter plus 100 ng Carrier DNA (Clontech #630440) for each well). 4-6 hours after transfection, cells were treated with compounds for overnight in the medium with final concentration of FBS 1.3% and DMSO 0.1%. After overnight (16 to 20 hours) incubation, media were removed and cells were lysed with […] Glo Lysis Buffer (Promega) for 10-15 minutes followed by 10 minute incubation with 50 μL Dual Glo reagent (Promega) at room temperature. Firefly luciferase luminescence was measured using a BMG Pherastar plate reader. To each well, 50 μL Stop and Glo reagent was added and incubated for 10 minutes at room temperature. Renilla luminescence was measured using a BMG Pherastar plate reader. To calculate the effect of compounds on RORγt activity, firefly values were normalized against values of DMSO only and values of reference compound at saturating concentration, then further normalized against Renilla signals. IC50s were generated by plotting final Renilla normalized data against compound concentration and percent inhibition was calculated against DMSO control.
Cells used in this assay were transiently co-transfected with three different plasmids, one expressing the GAL4-DNA binding domain (DBD)-RORγt fusion protein under control of a CMV promoter (NH2-Gal4-DBD:RORC—COOH in pCMV-BD, Stratagene #211342), and two reporter plasmids—the firefly luciferase reporter under control of a GAL4 promoter (pFR-Luc 2×GAL4) and Renilla luciferase reporter under control of CMV promoter (pRL-CMV, Promega #E2261). […] HEK293T cells were plated at 8750 cells per well in 384-well plate in medium of DMEM with 10% FBS. After 18-22 hours incubation, the transfection was carried out by using a PEI solution with 42.6 ng total DNA/well (12.5 ng pCMV-BD-ROR plus 5 ng of pFR-Luc reporter and 0.125 ng of pRL-CMV reporter plus 25 ng Carrier DNA (Clontech #630440) for each well). 4-6 hours after transfection, cells were treated with compounds for overnight in the medium with final concentration of FBS 1.3% and DMSO 0.1%. After overnight (16 to 20 hours) incubation, media were removed and cells were lysed with 20 μL Glo Lysis Buffer (Promega) for 10-15 minutes followed by 10 minute incubation with 20 μL Dual Glo reagent (Promega) at room temperature. Firefly luciferase luminescence was measured using a BMG Pherastar plate reader. To each well, 20 μL Stop and Glo reagent was added and incubated for 10 minutes at room temperature. Renilla luminescence was measured using a BMG Pherastar plate reader. To calculate the effect of compounds on RORγt activity, firefly values were normalized against values of DMSO only and values of reference compound at saturating concentration, then further normalized against Renilla signals. IC50s were generated by plotting final Renilla normalized data against compound concentration and percent inhibition was calculated against DMSO control.

[2] = molecular target: human RORγt ligand binding domain (RORγt LBD) (Homo sapiens (Human), UniProt P51449); experiment: RORγt ThermoFluor assay
Excerpt: ThermoFluor® is a fluorescence based assay that estimates ligand binding affinities by measuring the effect of a ligand on protein thermal stability (Pantoliano, M. W., Petrella, E. C., Kwasnoski, J. D., Lobanov, V. S., Myslik, J., Graf, E., Carver, T., Asel, E., Springer, B. A., Lane, P., and Salemme, F. R. (2001) High-density miniaturized thermal shift assays as a general strategy for drug discovery. J Biomol Screen 6, 429-40, and Matulis, D., Kranz, J. K., Salemme, F. R., and Todd, M. J. (2005) Thermodynamic stability of carbonic anhydrase: measurements of binding affinity and stoichiometry using ThermoFluor. Biochemistry 44, 5258-66). This approach is applicable to a wide variety of systems, and rigorous in theoretical interpretation through quantitation of equilibrium binding constants (KD).
The shift in the melting point described as a ΔTm is proportional to the concentration and affinity of the ligand.
RORγt ThermoFluor® Assay Construct
Nucleotides 850-1635 (SEQ ID NO:2) coding for the wild type human RORγt ligand binding domain (RORγt LBD) were cloned into the pHIS 1 vector, a modified pET E. coli expression vector (Accelagen, San Diego), containing an in-frame N-terminal His-tag and a TurboTEV protease cleavage site (ENLYFQG, SEQ ID NO:3) upstream of the cloned insert sequence. The amino acid sequence for the RORγt construct used in the Thermofluor® assay is shown as SEQ ID NO:4.
ThermoFluor® experiments were carried out using instruments owned by Janssen Research and Development, L.L.C. through its acquisition of 3-Dimensional Pharmaceuticals, Inc. 1,8-ANS (Invitrogen) was used as a fluorescent dye. Protein and compound solutions are dispensed into black 384-well polypropylene PCR microplates (Abgene) and overlayed with silicone oil (1 μL, Fluka, type DC 200) to prevent evaporation.
Bar-coded assay plates are robotically loaded onto a thermostatically controlled PCR-type thermal block and then heated at a typical ramp-rate of 1° C./min for all experiments. Fluorescence was measured by continuous illumination with UV light (Hamamatsu LC6) supplied via fiber optic and filtered through a band-pass filter (380-400 nm; >6 OD cutoff). Fluorescence emission of the entire 384-well plate was detected by measuring light intensity using a CCD camera (Sensys, Roper Scientific) filtered to detect 500±25 nm, resulting in simultaneous and independent readings of all 384 wells. Images were collected at each temperature, and the sum of the pixel intensity in a given area of the assay plate was recorded versus temperature. Reference wells contained RORγt without compounds, and the assay conditions were as follows: • 0.065 mg/mL RORγt • 60 μM 1,8-ANS • 100 mM Hepes, pH 7.0 • 10 mM NaCl • 2.5 mM GSH • 0.002% Tween-20
Project compounds were arranged in a pre-dosed mother plate (Greiner Bio-one) wherein compounds are serially diluted in 100% DMSO by 1:2 from a high concentration of 10 mM over 12 columns within a series (column 12 is a reference well containing DMSO, no compound). The compounds were robotically dispensed directly into assay plates (1×=46 nL) using a Hummingbird capillary liquid handling instrument (Digilab). Following compound dispense, protein and dye in buffer was added to achieve the final assay volume of 3 μL, followed by 1 μL of silicone oil.
The binding affinity was estimated as described previously (Matulis, D., Kranz, J. K., Salemme, F. R., and Todd, M. J. (2005) Thermodynamic stability of carbonic anhydrase: measurements of binding affinity and stoichiometry using ThermoFluor®. Biochemistry 44, 5258-66) using the following thermodynamic parameters of protein unfolding: […]

[3] = read-out: RORγt (FL) Reporter Assay A or B, % inhibition

Sequence of human RORγt ligand binding domain (RORγt LBD) (P51449 other isoform, or with tags, fused parts or gaps): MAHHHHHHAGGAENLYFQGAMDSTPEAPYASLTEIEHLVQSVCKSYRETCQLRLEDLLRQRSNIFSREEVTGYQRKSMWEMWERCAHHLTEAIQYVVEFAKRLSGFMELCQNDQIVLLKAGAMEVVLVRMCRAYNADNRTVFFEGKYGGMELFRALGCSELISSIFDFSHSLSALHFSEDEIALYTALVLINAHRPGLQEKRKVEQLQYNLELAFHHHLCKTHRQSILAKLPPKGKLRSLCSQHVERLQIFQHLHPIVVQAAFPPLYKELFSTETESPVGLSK
Sequence of full-length human RORγt (P51449 other isoform, or with tags, fused parts or gaps): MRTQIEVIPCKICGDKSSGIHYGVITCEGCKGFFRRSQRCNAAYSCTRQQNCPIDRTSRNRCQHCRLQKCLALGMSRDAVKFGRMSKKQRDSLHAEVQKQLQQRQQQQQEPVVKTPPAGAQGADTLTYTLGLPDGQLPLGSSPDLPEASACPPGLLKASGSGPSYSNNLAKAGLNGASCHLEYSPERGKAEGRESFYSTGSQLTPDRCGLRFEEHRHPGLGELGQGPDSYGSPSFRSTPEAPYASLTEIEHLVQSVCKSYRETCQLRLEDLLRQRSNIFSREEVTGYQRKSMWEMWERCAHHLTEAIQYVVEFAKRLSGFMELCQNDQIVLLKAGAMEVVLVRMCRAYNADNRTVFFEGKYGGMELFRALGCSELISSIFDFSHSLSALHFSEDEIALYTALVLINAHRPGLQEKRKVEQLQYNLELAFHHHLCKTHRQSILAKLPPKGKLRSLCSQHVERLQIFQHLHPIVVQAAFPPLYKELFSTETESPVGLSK

Row | Compound | IC50 [1] [nM] | inhibition at 6 µM [1] [%] | further results
1 | Cc1nc(C(=O)NC[C@@H]2CC[C@@H](S(C)(=O)=O)C[C@H]2O)c(C#N)n1-c1ccc(CC(C)(C)C(F)(F)F)cc1OC(F)F (racemic) [Example 55, 5-Cyano-1-(2-(difluoromethoxy)-4-(3,3,3-trifluoro-2,2-dimethylpropyl)phenyl)-N-(((1RS,2SR,4SR)-2-hydroxy-4-(methylsulfonyl)cyclohexyl)methyl)-2-methyl-1H-imidazole-4-carboxamide] | 66 | – | inhibition at 3 µM [1, 3]: 93%; Kd [2]: 20 nM
2 | CCc1nc(C(=O)NC[C@H]2CC[C@H](S(C)(=O)=O)CC2)c(C)n1-c1ccc(CC(C)C(F)(F)F)cc1OC (single isomer, unassigned) [Example 8] | 160 | – | inhibition at 0.67 µM ([1]; read-out: RORγt (FL) Reporter Assay A or B, % inhibition, 0.67 μM compound concentration (****)): 66%
3 | CCc1nc(C(=O)NC[C@]2(O)CC[C@@H](S(C)(=O)=O)CC2)c(Cl)n1-c1ncc(CCCC(F)(F)F)cc1OC(F)F [Example 47, 5-Chloro-1-(3-(difluoromethoxy)-5-(4,4,4-trifluorobutyl)pyridin-2-yl)-2-ethyl-N-(((1s,4s)-1-hydroxy-4-(methylsulfonyl)cyclohexyl)methyl)-1H-imidazole-4-carboxamide] | 340 | 98 | –
4 | CCc1nc(C(=O)NC[C@H]2CC[C@H](S(C)(=O)=O)CC2)c(Cl)n1-c1ncc(CCCC(F)(F)F)cc1OC(F)F [Example 48, 5-Chloro-1-(3-(difluoromethoxy)-5-(4,4,4-trifluorobutyl)pyridin-2-yl)-2-ethyl-N-(((1r,4r)-4-(methylsulfonyl)cyclohexyl)methyl)-1H-imidazole-4-carboxamide] | 50 | 104 | –
5 | CCc1nc(C(=O)NC[C@]2(O)CC[C@@H](S(C)(=O)=O)CC2)c(C)n1-c1ncc(CC(C)(C)C(F)(F)F)cc1OC(F)F [Example 50, 1-(3-(Difluoromethoxy)-5-(3,3,3-trifluoro-2,2-dimethylpropyl)pyridin-2-yl)-2-ethyl-N-(((1s,4s)-1-hydroxy-4-(methylsulfonyl)cyclohexyl)methyl)-5-methyl-1H-imidazole-4-carboxamide] | 120 | 90 | –
6 | CCc1nc(C(=O)NC[C@]2(O)CC[C@@H](S(C)(=O)=O)CC2)c(C)n1-c1ncc(CCCC(F)(F)F)cc1OC(F)F [Example 52, 1-(3-(Difluoromethoxy)-5-(4,4,4-trifluorobutyl)pyridin-2-yl)-2-ethyl-N-(((1s,4s)-1-hydroxy-4-(methylsulfonyl)cyclohexyl)methyl)-5-methyl-1H-imidazole-4-carboxamide] | – | 78 | –
7 | CCc1nc(C(=O)NC[C@H]2CC[C@H](S(C)(=O)=O)CC2)c(Cl)n1-c1ccc(CC(C)(C)C(F)(F)F)c(F)c1 [Example 103, 5-Chloro-2-ethyl-1-(3-fluoro-4-(3,3,3-trifluoro-2,2-dimethylpropyl)phenyl)-N-(((1r,4r)-4-(methylsulfonyl)cyclohexyl)methyl)-1H-imidazole-4-carboxamide] | – | – | Kd [2]: 4.4 nM
8 | CCc1nc(C(=O)NC[C@]2(O)CC[C@@H](S(C)(=O)=O)CC2)c(Cl)n1-c1ccc(CC(C)(C)C(F)(F)F)c(F)c1 [Example 104, 5-Chloro-2-ethyl-1-(3-fluoro-4-(3,3,3-trifluoro-2,2-dimethylpropyl)phenyl)-N-(((1s,4s)-1-hydroxy-4-(methylsulfonyl)cyclohexyl)methyl)-1H-imidazole-4-carboxamide] | – | – | Kd [2]: 5.4 nM
9 | CCc1nc(C(=O)NC[C@]2(O)CC[C@@H](S(C)(=O)=O)CC2)c(Cl)n1-c1ccc(CC(C(F)(F)F)C(F)(F)F)c(F)c1 [Example 105, 5-Chloro-2-ethyl-1-(3-fluoro-4-(3,3,3-trifluoro-2-(trifluoromethyl)propyl)phenyl)-N-(((1s,4s)-1-hydroxy-4-(methylsulfonyl)cyclohexyl)methyl)-1H-imidazole-4-carboxamide] | 53 | – | inhibition at 0.22 µM ([1]; 0.22 μM compound concentration (******), read-out: RORγt (FL) Reporter Assay A or B, % inhibition): 80%
10 | CCc1nc(C(=O)NC[C@]2(O)CC[C@@H](S(C)(=O)=O)CC2)c(Cl)n1-c1ncc(CC(C)(C)CC(F)(F)F)cc1OC(F)F [Example 107, 5-Chloro-1-(3-(difluoromethoxy)-5-(4,4,4-trifluoro-2,2-dimethylbutyl)pyridin-2-yl)-2-ethyl-N-(((1s,4s)-1-hydroxy-4-(methylsulfonyl)cyclohexyl)methyl)-1H-imidazole-4-carboxamide] | – | – | inhibition at 3 µM [1, 3]: 85%
11 | CCc1nc(C(=O)NC[C@]2(O)CC[C@@H](S(C)(=O)=O)CC2)c(C#N)n1-c1cnc(CCC(F)(F)F)cc1OC [Example 118, 5-Cyano-2-ethyl-N-(((1s,4s)-1-hydroxy-4-(methylsulfonyl)cyclohexyl)methyl)-1-(4-methoxy-6-(3,3,3-trifluoropropyl)pyridin-3-yl)-1H-imidazole-4-carboxamide] | 2400 | 54 | –
